Experimental data from paper PMC7026418, “The kinase polypharmacology landscape of clinical PARP inhibitors” (Scientific Reports, 2020).
Like-named read-outs stand apart in the source and are kept apart here. Values belong to the compound of their own block, whether it stands above or below them.

Assays:
Test in all cases: biochemical
Set-up in all cases: DiscoveRx KINOMEscan active site-directed competition binding; percent of control kinase bound to immobilised ligand
STK35 = STK35 (Homo sapiens, UniProt Q8TDR2)
STK35, sequence (Q8TDR2 whole entry): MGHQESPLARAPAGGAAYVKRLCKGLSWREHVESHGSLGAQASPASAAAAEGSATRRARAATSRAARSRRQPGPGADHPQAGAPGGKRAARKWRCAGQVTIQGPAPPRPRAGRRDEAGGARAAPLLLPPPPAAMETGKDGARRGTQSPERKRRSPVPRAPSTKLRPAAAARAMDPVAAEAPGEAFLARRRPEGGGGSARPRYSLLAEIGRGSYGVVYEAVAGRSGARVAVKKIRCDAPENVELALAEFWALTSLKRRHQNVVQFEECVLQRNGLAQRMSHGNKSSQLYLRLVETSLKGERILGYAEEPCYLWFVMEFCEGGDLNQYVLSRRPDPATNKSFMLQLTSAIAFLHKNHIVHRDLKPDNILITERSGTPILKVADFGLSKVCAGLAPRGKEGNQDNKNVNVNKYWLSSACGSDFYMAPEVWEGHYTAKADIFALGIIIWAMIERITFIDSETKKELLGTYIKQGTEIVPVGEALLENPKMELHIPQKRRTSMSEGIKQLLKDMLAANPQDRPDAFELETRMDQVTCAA

RET = RET (Homo sapiens, UniProt P07949)
RET, sequence (P07949 whole entry): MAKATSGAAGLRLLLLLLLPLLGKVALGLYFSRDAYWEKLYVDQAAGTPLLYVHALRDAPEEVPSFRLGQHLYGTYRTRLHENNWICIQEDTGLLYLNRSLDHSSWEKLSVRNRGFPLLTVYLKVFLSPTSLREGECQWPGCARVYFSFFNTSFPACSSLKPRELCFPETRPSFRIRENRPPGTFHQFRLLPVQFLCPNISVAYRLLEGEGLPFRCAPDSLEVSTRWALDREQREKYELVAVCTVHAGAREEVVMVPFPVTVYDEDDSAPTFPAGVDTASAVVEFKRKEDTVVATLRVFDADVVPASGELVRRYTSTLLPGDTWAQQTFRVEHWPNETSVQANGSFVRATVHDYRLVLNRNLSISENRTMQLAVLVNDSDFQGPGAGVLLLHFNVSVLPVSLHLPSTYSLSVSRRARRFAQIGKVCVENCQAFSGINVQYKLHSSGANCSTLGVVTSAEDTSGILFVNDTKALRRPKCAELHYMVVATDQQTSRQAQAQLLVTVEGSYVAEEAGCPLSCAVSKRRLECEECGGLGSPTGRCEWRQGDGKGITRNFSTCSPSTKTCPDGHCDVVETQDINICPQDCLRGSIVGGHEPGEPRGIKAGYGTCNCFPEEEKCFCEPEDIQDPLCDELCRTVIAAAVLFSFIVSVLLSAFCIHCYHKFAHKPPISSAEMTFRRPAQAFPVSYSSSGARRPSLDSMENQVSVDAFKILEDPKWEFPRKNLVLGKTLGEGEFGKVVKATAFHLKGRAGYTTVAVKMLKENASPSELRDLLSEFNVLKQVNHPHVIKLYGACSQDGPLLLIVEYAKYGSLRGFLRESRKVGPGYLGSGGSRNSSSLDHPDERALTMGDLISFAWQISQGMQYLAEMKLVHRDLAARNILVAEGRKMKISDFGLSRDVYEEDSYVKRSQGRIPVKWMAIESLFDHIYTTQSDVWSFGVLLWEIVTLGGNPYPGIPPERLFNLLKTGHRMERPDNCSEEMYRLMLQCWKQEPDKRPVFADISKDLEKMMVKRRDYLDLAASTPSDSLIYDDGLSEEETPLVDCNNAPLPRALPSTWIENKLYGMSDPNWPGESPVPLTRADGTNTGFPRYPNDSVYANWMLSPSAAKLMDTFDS

[1] = target: T1, JAK1(JH2domain-pseudokinase) (Homo sapiens, UniProt P23458)
T1 construct: JH2domain-pseudokinase

CHEK2 = CHEK2 (Homo sapiens, UniProt O96017)
CHEK2, sequence (O96017 whole entry): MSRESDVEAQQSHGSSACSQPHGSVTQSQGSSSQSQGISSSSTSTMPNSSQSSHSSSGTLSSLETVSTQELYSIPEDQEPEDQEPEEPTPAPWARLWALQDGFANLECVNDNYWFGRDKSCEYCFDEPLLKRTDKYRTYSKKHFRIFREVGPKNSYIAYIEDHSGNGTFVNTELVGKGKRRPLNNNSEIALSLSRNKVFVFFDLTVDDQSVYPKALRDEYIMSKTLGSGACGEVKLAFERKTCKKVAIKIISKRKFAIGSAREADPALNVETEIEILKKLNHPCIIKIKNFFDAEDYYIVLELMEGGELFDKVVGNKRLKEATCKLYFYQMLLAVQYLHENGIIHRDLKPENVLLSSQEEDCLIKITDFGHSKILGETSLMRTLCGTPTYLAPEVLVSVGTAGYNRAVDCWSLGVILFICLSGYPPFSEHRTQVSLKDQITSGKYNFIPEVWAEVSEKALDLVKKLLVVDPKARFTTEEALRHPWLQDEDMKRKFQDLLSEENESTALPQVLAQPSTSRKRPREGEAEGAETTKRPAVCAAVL

NEK11 = target: T2, NEK11 (Homo sapiens, UniProt Q8NG66)
T2 sequence (Q8NG66 1-645): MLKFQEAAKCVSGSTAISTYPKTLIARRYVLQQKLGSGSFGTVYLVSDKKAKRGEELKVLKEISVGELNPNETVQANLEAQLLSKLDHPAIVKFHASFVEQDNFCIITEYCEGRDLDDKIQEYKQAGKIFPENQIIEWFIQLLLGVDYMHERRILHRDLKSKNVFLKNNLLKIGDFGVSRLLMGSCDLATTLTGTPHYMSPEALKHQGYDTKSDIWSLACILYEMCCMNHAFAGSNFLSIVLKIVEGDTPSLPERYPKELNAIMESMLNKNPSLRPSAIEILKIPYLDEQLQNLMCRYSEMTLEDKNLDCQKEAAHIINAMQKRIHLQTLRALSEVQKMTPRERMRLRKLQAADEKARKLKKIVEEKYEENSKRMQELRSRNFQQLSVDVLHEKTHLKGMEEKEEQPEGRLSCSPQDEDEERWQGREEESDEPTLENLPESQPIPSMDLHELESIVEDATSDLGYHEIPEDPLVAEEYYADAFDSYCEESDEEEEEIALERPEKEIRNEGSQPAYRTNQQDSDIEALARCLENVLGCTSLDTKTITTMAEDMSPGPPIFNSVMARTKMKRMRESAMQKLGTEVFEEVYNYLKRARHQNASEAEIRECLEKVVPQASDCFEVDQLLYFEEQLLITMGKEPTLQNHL

TLK2 = TLK2 (Homo sapiens, UniProt Q86UE8)
FYN = FYN (Homo sapiens, UniProt P06241)
FYN, sequence (P06241 whole entry): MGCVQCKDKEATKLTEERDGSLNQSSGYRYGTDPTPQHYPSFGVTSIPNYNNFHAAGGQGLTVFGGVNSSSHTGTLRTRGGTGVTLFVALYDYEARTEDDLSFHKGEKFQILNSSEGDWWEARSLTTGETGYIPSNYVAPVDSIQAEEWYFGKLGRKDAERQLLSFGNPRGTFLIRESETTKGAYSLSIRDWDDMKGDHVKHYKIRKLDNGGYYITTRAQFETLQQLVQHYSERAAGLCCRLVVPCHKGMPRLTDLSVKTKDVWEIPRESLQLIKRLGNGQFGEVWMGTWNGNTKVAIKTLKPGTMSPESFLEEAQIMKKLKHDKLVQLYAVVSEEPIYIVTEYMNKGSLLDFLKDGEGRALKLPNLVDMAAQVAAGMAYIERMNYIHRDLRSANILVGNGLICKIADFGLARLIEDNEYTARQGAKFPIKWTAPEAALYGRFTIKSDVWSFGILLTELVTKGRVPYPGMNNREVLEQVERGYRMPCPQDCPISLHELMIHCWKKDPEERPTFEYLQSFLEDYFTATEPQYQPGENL

PIK3CA(E545A) = PIK3CA(E545A) (Homo sapiens, UniProt P42336, E545A)
PIK3CA(E545A), sequence (P42336 whole entry E545A): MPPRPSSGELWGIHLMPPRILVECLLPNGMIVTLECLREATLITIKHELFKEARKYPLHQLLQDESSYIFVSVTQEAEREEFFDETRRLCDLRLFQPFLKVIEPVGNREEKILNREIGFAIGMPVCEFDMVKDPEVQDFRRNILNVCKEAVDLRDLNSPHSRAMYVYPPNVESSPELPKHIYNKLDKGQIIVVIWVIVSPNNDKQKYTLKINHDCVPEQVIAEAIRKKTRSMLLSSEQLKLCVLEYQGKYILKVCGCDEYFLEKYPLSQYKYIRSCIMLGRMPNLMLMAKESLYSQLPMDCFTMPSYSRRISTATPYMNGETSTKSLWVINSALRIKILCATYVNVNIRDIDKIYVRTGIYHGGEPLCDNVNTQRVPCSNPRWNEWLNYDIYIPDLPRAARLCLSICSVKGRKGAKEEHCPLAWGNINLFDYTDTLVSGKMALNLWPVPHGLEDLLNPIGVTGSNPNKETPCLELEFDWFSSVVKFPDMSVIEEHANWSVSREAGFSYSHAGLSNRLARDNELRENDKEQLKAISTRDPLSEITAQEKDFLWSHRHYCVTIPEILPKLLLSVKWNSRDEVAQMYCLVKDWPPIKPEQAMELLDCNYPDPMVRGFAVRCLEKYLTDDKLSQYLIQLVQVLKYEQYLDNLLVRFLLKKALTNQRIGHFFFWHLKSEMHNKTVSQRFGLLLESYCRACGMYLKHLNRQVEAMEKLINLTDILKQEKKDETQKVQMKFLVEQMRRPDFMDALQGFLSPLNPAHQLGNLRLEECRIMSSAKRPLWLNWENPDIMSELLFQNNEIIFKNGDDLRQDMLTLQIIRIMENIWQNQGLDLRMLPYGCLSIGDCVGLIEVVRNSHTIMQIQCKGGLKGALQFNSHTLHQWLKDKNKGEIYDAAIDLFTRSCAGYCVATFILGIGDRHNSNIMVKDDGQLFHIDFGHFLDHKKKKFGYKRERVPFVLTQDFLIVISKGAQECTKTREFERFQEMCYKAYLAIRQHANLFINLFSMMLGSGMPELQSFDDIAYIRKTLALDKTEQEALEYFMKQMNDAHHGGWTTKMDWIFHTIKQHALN

BMPR1A = BMPR1A (Homo sapiens, UniProt P36894)
BMPR1A, sequence (P36894 whole entry): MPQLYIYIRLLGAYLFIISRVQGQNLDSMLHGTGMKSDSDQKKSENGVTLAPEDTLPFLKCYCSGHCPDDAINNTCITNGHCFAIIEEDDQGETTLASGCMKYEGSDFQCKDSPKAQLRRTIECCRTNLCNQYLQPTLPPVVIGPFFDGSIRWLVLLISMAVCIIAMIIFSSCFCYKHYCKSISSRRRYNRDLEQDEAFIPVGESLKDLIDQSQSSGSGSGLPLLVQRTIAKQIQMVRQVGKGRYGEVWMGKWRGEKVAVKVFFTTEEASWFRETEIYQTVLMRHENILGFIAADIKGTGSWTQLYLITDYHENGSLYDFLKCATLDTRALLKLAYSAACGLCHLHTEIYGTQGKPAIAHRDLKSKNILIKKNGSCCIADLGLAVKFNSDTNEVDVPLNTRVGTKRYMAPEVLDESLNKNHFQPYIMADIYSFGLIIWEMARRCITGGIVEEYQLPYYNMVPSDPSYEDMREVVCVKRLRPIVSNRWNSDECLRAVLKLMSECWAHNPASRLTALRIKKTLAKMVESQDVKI

ERK2 = target: T3, ERK2 (Homo sapiens, UniProt P28482)
T3 construct: gene MAPK1
T3 sequence (P28482 whole entry): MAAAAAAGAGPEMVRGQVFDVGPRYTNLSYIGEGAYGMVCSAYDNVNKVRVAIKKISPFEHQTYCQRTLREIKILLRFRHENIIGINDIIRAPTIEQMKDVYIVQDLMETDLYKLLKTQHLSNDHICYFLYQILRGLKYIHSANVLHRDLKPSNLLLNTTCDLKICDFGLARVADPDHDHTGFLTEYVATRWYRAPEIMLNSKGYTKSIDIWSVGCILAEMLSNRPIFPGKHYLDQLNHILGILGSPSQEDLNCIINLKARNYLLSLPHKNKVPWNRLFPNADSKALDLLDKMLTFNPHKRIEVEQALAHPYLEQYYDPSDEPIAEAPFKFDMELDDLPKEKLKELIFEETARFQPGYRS

PKN1 = PKN1 (Homo sapiens, UniProt Q16512)
MEK5 = target: T4, MEK5 (Homo sapiens, UniProt Q13163)
T4 construct: gene MAP2K5
T4 sequence (Q13163 1-448): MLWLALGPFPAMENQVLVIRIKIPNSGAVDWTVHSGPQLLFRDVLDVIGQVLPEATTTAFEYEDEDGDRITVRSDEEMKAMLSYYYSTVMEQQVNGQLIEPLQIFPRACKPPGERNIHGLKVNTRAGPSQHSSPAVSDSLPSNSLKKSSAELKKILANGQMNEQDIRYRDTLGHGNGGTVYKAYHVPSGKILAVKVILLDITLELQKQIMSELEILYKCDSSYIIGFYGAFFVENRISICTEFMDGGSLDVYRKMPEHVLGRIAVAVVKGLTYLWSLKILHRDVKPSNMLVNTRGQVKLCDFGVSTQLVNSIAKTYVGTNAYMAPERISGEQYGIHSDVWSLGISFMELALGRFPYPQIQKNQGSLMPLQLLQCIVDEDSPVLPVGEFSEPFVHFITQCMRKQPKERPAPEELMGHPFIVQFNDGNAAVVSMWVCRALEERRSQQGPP

[2] = read-out: Olaparib / %Ctrl @ 10000nM
[3] = read-out: Talazoparib (BMN 673) / %Ctrl @ 10000nM
[4] = read-out: Rucaparib / %Ctrl @ 10000nM, binding competition, % of control
[5] = read-out: Niraparib (MK-4827) / %Ctrl @ 10000nM

percent of control binding at 10 µM (STK35; [2]): 100% | percent of control binding at 10 µM (RET; [2]): 100% | percent of control binding at 10 µM [1, 2]: 91% | percent of control binding at 10 µM (CHEK2; [2]): 94% | percent of control binding at 10 µM (NEK11; [2]): 82% | percent of control binding at 10 µM (TLK2; [2]): 95% | percent of control binding at 10 µM (FYN; [2]): 72% | percent of control binding at 10 µM (PIK3CA(E545A); [2]): 90% | percent of control binding at 10 µM (BMPR1A; [2]): 100% | percent of control binding at 10 µM (ERK2; [2]): 93% | percent of control binding at 10 µM (PKN1; [2]): 83% | percent of control binding at 10 µM (MEK5; [2]): 77%
SMILES: O=C(c1cc(Cc2n[nH]c(=O)c3ccccc23)ccc1F)N1CCN(C(=O)C2CC2)CC1 [Olaparib]

percent of control binding at 10 µM (STK35; [3]): 100% | percent of control binding at 10 µM (RET; [3]): 100% | percent of control binding at 10 µM [1, 3]: 73% | percent of control binding at 10 µM (CHEK2; [3]): 93% | percent of control binding at 10 µM (NEK11; [3]): 100% | percent of control binding at 10 µM (TLK2; [3]): 84% | percent of control binding at 10 µM (FYN; [3]): 100% | percent of control binding at 10 µM (PIK3CA(E545A); [3]): 73% | percent of control binding at 10 µM (BMPR1A; [3]): 100% | percent of control binding at 10 µM (ERK2; [3]): 100% | percent of control binding at 10 µM (PKN1; [3]): 74% | percent of control binding at 10 µM (MEK5; [3]): 51%
SMILES: Cn1ncnc1[C@H]1c2n[nH]c(=O)c3cc(F)cc(c23)N[C@@H]1c1ccc(F)cc1 [Talazoparib]

percent of control binding at 10 µM (STK35; [4]): 92% | percent of control binding at 10 µM (RET; [4]): 98% | percent of control binding at 10 µM [1, 4]: 0.8% | percent of control binding at 10 µM (CHEK2; [4]): 76% | percent of control binding at 10 µM (NEK11; [4]): 91% | percent of control binding at 10 µM (TLK2; [4]): 84% | percent of control binding at 10 µM (FYN; [4]): 100% | percent of control binding at 10 µM (PIK3CA(E545A); [4]): 85% | percent of control binding at 10 µM (BMPR1A; [4]): 91% | percent of control binding at 10 µM (ERK2; [4]): 94% | percent of control binding at 10 µM (PKN1; [4]): 78% | percent of control binding at 10 µM (MEK5; [4]): 70%
SMILES: CNCc1ccc(-c2[nH]c3cc(F)cc4c3c2CCNC4=O)cc1 [Rucaparib]

SMILES: NC(=O)c1cccc2cn(-c3ccc([C@@H]4CCCNC4)cc3)nc12 [Niraparib]
percent of control binding at 10 µM (STK35; [5]): 92% | percent of control binding at 10 µM (RET; [5]): 83% | percent of control binding at 10 µM (CHEK2; [5]): 89% | percent of control binding at 10 µM (NEK11; [5]): 99% | percent of control binding at 10 µM (TLK2; [5]): 95% | percent of control binding at 10 µM (FYN; [5]): 88% | percent of control binding at 10 µM (PIK3CA(E545A); [5]): 98% | percent of control binding at 10 µM (BMPR1A; [5]): 94% | percent of control binding at 10 µM (ERK2; [5]): 93% | percent of control binding at 10 µM (PKN1; [5]): 69% | percent of control binding at 10 µM (MEK5; [5]): 66%
